Experimental data taken from US20260125382A1, “COMPOUNDS FOR INHIBITING OR DEGRADING CDK2 AND/OR CDK9 AND MEDICINAL USE THEREOF” (KOREA RESEARCH INSTITUTE OF CHEMICAL TECHNOLOGY, priority 2022, published 2026).

Legend:
[1] = target: T1, CDK9 (Homo sapiens, UniProt P50750); assay: CDK protein degradation activity (Western blotting), CDK9; assay type: cell-based; conditions: MDA-MB-231 cells, 16 hours, Western blot
T1 construct: endogenous in cells; host or cells: MDA-MB-231
How it was run: (§1)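 CDK2 and CDK9 protein levels measured by Western blot with densitometry, using tubulin as loading reference. Cells were MDA-MB-231, exposed for 16 h to 100 nM, 1 μM or 10 μM compound or to DMSO.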

[2] = target: T2, CDK2 (Homo sapiens, UniProt P24941); assay: CDK protein degradation activity (Western blotting), CDK2; assay type: cell-based; conditions: MDA-MB-231 cells, 16 hours, Western blot
T2 construct: endogenous in cells; host or cells: MDA-MB-231
How it was run: as §1

T1 sequence (P50750 whole entry): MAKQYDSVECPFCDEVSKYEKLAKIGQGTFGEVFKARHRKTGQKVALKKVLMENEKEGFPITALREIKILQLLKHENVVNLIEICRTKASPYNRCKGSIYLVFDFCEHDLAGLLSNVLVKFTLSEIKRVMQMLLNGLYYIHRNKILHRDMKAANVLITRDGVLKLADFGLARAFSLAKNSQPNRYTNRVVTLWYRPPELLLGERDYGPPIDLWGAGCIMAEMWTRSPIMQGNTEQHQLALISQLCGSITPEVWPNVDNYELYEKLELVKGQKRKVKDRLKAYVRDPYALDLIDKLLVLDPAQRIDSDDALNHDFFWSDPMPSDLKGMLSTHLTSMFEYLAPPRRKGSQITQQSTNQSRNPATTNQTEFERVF

Compound	Enzyme degradation CDK9 (% remaining) @ 0.1 μM [1]	Enzyme degradation CDK9 (% remaining) @ 1 μM [1]	Enzyme degradation CDK9 (% remaining) @ 10 μM [1]	Enzyme degradation CDK2 (% remaining) @ 0.1 μM [2]	Enzyme degradation CDK2 (% remaining) @ 1 μM [2]	Enzyme degradation CDK2 (% remaining) @ 10 μM [2]
O=C1CC[C@H](N2C(=O)c3ccc(NCC(=O)N4CCC(CC(=O)N5CCN(c6ccc(Nc7ncnc8c7ncn8C7CC(NC(=O)Cc8ccccc8)C7)cc6)CC5)CC4)cc3C2=O)C(=O)N1 (stereo partly drawn) [Compound 213, N-((1s,3s)-3-(6-((4-(4-(2-(1-((2-(2,6-dioxopiperidin-3-yl)-1,3-dioxoisoindolin-5-yl)glycyl)piperidin-4-yl)acetyl)piperazin-1-yl)phenyl)amino)-9H-purin-9-yl)cyclobutyl)-2-phenylacetamide]	70%	30%	10%	50%	70%	50%
O=C1CC[C@H](N2C(=O)c3ccc(N4CCC(CC(=O)N5CCN(c6ccc(Nc7ncnc8c7ncn8[C@H]7C[C@@H](NC(=O)Cc8ccccc8)C7)cc6)CC5)CC4)cc3C2=O)C(=O)N1 [Compound 216, N-((1s,3s)-3-(6-((4-(4-(2-(1-(2-(2,6-dioxopiperidin-3-yl)-1,3-dioxoisoindolin-5-yl)piperidin-4-yl)acetyl)piperazin-1-yl)phenyl)amino)-9H-purin-9-yl)cyclobutyl)-2-phenylacetamide]	50/50/50%	50/50/50%	50/50/50%	40%	40%	50%
O=C(COc1cccc2c1C(=O)N(C1CCC(=O)NC1=O)C2=O)NCC1CCC(CN2CCN(c3ccc(Nc4ncnc5c4ncn5C4CC(NC(=O)Cc5ccccc5)C4)cc3)CC2)CC1 (stereo not drawn) [Compound 219, 2-((2-(2,6-dioxopiperidin-3-yl)-1,3-dioxoisoindolin-4-yl)oxy)-N-(((1r,4r)-4-((4-(4-((9-((1s,3s)-3-(2-phenylacetamido)cyclobutyl)-9H-purin-6-yl)amino)phenyl)piperazin-1-yl)methyl)cyclohexyl)methyl)acetamide]	100%	10%	0%	80%	50%	50%
O=C(CNc1ccc2c(c1)C(=O)N(C1CCC(=O)NC1=O)C2=O)NC[C@H]1CC[C@H](CN2CCN(c3ccc(Nc4ncnc5c4ncn5[C@H]4C[C@@H](NC(=O)Cc5ccccc5)C4)cc3)CC2)CC1 (stereo partly drawn) [Compound 220, 2-((2-(2,6-dioxopiperidin-3-yl)-1,3-dioxoisoindolin-5-yl)amino)-N-(((1r,4r)-4-((4-(4-((9-((1s,3s)-3-(2-phenylacetamido)cyclobutyl)-9H-purin-6-yl)amino)phenyl)piperazin-1-yl)methyl)cyclohexyl)methyl)acetamide]	40%	0%	0%	80%	80%	60%
O=C(COc1ccc2c(c1)C(=O)N(C1CCC(=O)NC1=O)C2=O)NC[C@H]1CC[C@H](CN2CCN(c3ccc(Nc4ncnc5c4ncn5[C@H]4C[C@@H](NC(=O)Cc5ccccc5)C4)cc3)CC2)CC1 (stereo partly drawn) [Compound 221, 2-((2-(2,6-dioxopiperidin-3-yl)-1,3-dioxoisoindolin-5-yl)oxy)-N-(((1r,4r)-4-((4-(4-((9-((1s,3s)-3-(2-phenylacetamido)cyclobutyl)-9H-purin-6-yl)amino)phenyl)piperazin-1-yl)methyl)cyclohexyl)methyl)acetamide]	100%	60%	0%	100/100/100%	100/100/100%	100/100/100%
O=C1CC[C@H](N2C(=O)c3cccc(NC[C@H]4CC[C@H](CN5CCN(c6ccc(Nc7ncnc8c7ncn8[C@H]7C[C@@H](NC(=O)Cc8ccccc8)C7)cc6)CC5)CC4)c3C2=O)C(=O)N1 [Compound 222, N-((1s,3s)-3-(6-((4-(4-(((1r,4r)-4-(((2-(2,6-dioxopiperidin-3-yl)-1,3-dioxoisoindolin-4-yl)amino)methyl)cyclohexyl)methyl)piperazin-1-yl)phenyl)amino)-9H-purin-9-yl)cyclobutyl)-2-phenylacetamide]	70%	70%	80%	100/100/100%	100/100/100%	100/100/100%
O=C1CC[C@H](N2C(=O)c3cccc(NCC(=O)N4CCN(CCCN5CCN(c6ccc(Nc7ncnc8c7ncn8[C@H]7C[C@@H](NC(=O)Cc8ccccc8)C7)cc6)CC5)CC4)c3C2=O)C(=O)N1 [Compound 231, N-((1s,3s)-3-(6-((4-(4-(3-(4-((2-(2,6-dioxopiperidin-3-yl)-1,3-dioxoisoindolin-4-yl)glycyl)piperazin-1-yl)propyl)piperazin-1-yl)phenyl)amino)-9H-purin-9-yl)cyclobutyl)-2-phenylacetamide]	20%	0%	0%	50%	60%	40%

Further lines, results first:

Enzyme degradation CDK9 (% remaining) @ 0.1 μM [1]	Enzyme degradation CDK9 (% remaining) @ 1 μM [1]	Enzyme degradation CDK9 (% remaining) @ 10 μM [1]	Enzyme degradation CDK2 (% remaining) @ 0.1 μM [2]	Enzyme degradation CDK2 (% remaining) @ 1 μM [2]	Enzyme degradation CDK2 (% remaining) @ 10 μM [2]	Compound
0/0/0%	0/0/0%	0/0/0%	80%	100%	50%	O=C(COc1ccc(C2CCC(=O)NC2=O)cc1)NC[C@H]1CC[C@H](CN2CCN(c3ccc(Nc4ncnc5c4ncn5[C@H]4C[C@@H](NC(=O)Cc5ccccc5)C4)cc3)CC2)CC1 (stereo partly drawn) [Compound 217, 2-(4-(2,6-dioxopiperidin-3-yl)phenoxy)-N-(((1r,4r)-4-((4-(4-((9-((1s,3s)-3-(2-phenylacetamido)cyclobutyl)-9H-purin-6-yl)amino)phenyl)piperazin-1-yl)methyl)cyclohexyl)methyl)acetamide]
30%	0%	0%	10%	20%	40%	O=C1CC[C@@H](c2cccc(OCC(=O)N3CCC(CN4CCN(c5ccc(Nc6ncnc7c6ncn7C6CC(NC(=O)Cc7ccccc7)C6)cc5)CC4)CC3)c2)C(=O)N1 (stereo partly drawn) [Compound 225, N-((1s,3s)-3-(6-((4-(4-((1-(2-(3-(2,6-dioxopiperidin-3-yl)phenoxy)acetyl)piperidin-4-yl)methyl)piperazin-1-yl)phenyl)amino)-9H-purin-9-yl)cyclobutyl)-2-phenylacetamide]
0/0/0%	0/0/0%	0/0/0%	40%	30%	40%	O=C1CC[C@@H](c2cccc(OCC(=O)N3CCC4(CC3)CC(N3CCN(c5ccc(Nc6ncnc7c6ncn7C6CC(NC(=O)Cc7ccccc7)C6)cc5)CC3)C4)c2)C(=O)N1 (stereo partly drawn) [Compound 226, N-((1s,3s)-3-(6-((4-(4-(7-(2-(3-(2,6-dioxopiperidin-3-yl)phenoxy)acetyl)-7-azaspiro[3.5]nonan-2-yl)piperazin-1-yl)phenyl)amino)-9H-purin-9-yl)cyclobutyl)-2-phenylacetamide]
60%	70%	10%	50%	20%	70%	O=C1CC[C@@H](c2cccc(OCC(=O)N3CCC(CC(=O)N4CCN(c5ccc(Nc6ncnc7c6ncn7[C@H]6C[C@@H](NC(=O)Cc7ccccc7)C6)cc5)CC4)CC3)c2)C(=O)N1 [Compound 227, N-((1s,3s)-3-(6-((4-(4-(2-(1-(2-(3-(2,6-dioxopiperidin-3-yl)phenoxy)acetyl)piperidin-4-yl)acetyl)piperazin-1-yl)phenyl)amino)-9H-purin-9-yl)cyclobutyl)-2-phenylacetamide]
20%	10%	0%	70%	90%	100%	Cc1cccc(C(=O)NC2CC(n3cnc4c(NCCCN5CCN(CC6CCN(C(=O)COc7ccc([C@@H]8CCC(=O)NC8=O)cc7)CC6)CC5)ncnc43)C2)n1 (stereo partly drawn) [Compound 229, N-((1s,3s)-3-(6-((3-(4-((1-(2-(4-(2,6-dioxopiperidin-3-yl)phenoxy)acetyl)piperidin-4-yl)methyl)piperazin-1-yl)propyl)amino)-9H-purin-9-yl)cyclobutyl)-6-methylpicolinamide]
30%	10%	0%	50%	50%	80%	Cc1cccc(C(=O)N[C@H]2C[C@@H](n3cnc4c(NCCCN5CCN(CC6CCN(C(=O)COc7cccc([C@@H]8CCC(=O)NC8=O)c7)CC6)CC5)ncnc43)C2)n1 [Compound 230, N-((1s,3s)-3-(6-((3-(4-((1-(2-(3-(2,6-dioxopiperidin-3-yl)phenoxy)acetyl)piperidin-4-yl)methyl)piperazin-1-yl)propyl)amino)-9H-purin-9-yl)cyclobutyl)-6-methylpicolinamide]
